The source made the active and inactive calls.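 The calls were made as follows: active = maximal percent inhibition of the deubiquitinase OTUD3 of at least 30% across the tested doses; inactive = the rest.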

The target of this assay is OTU domain-containing protein 3 (Homo sapiens) (UniProt Q5T2D3). Description: Validation of screening hits, potency titration, in vitro enzymatic, OTU domain-containing protein 3 DUB inhibitors (AID 1645868). Particulars: purified OTUD3, ubiquitin-rhodamine cleavage fluorescence, 2 h.
OTU domain-containing protein 3 (Homo sapiens), sequence (Q5T2D3 whole entry, looked up, the tested form may be a part): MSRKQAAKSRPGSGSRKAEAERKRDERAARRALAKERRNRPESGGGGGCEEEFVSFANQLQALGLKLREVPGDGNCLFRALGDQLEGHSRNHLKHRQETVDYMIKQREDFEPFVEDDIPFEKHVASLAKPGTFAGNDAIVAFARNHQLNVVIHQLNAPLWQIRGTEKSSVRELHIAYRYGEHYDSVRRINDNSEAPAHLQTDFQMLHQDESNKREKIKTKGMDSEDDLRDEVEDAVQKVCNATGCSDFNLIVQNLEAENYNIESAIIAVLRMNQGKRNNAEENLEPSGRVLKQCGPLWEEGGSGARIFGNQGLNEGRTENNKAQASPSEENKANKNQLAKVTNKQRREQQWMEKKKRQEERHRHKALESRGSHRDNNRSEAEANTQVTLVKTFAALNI
`CS(=O)(=O)NC1CCCN(C(=O)Nc2cccc3ccccc23)C1` (stereo not drawn): the IC50 was > 50 µM (inactive). With `Nc1c(-c2ccc(Cl)cc2)cnc2nc(Sc3ncc(C(F)(F)F)cc3Cl)nn12`, the IC50 was > 50 µM (inactive). Regarding `O=C(NCC(c1cccnc1)N1CCc2ccccc2C1)C(=O)Nc1ccc2c(c1)OCO2` (stereo not drawn), the IC50 was 37.7 µM.

Consider `O=C(NCCCN1CCc2ccccc2C1)c1cc2c(s1)CS(=O)(=O)C2`, for which the IC50 is > 50 µM (inactive).

For `Cc1cc(C(=O)NC2(O)C(=O)c3ccccc3C2=O)n(C)n1`, the IC50 was 47.2 µM.

For the compound `COc1ccccc1N1CCN(C(=O)c2ccc3c(c2)N(Cc2cc(C)ccc2C)C(=O)c2ccccc2S3=O)CC1` (stereo not drawn), the IC50 was > 50 µM (inactive). Turning to `COc1cc2c(cc1OC)-c1cc(Nc3ccc(Br)cc3)nc(=O)n1CC2`, the IC50 is 8.29 µM. Consider `CN1CCN(C(=O)c2cc(-c3ccn(-c4ccccc4)n3)n3ccccc23)CC1`, for which the IC50 is > 50 µM (inactive).

Regarding `COc1cc(C#N)c(NC(=NCc2ccc(F)cc2)SC)cc1OC`, the IC50 is 49 µM. `CCC1OC(O)(C(C)C(O)C(C)C2OC(=O)/C(C)=C/C(C)=CC(C)C(O)C(C)C/C(C)=C/C=C/C2OC)CC(OC(=O)/C=C/C(=O)NC2=C(O)CCC2=O)C1C` (stereo not drawn): the IC50 is > 50 µM (inactive). Turning to `O=C(Cc1noc2ccccc12)NCC(=O)Nc1ccc(Cl)cc1`, the IC50 is 22.2 µM. `O=C(Nc1ccc(F)cc1)Nc1ccccc1OCc1cc(=O)n2ccccc2n1`: the concentration for half-maximal inhibition (IC50) was 39.3 µM. Turning to `Cc1ccc(C(=O)c2cn(CC(=O)Nc3ccccc3)c3ccc(C)cc3c2=O)cc1`, the IC50 is 21.1 µM. The figure for `COc1ccc(OC)c(-c2cn3ccn(-c4ccc5c(c4)CCC5)c(=O)c3n2)c1` is > 50 µM (inactive); for `Cc1ccc(Cn2c(=O)n(CCC(=O)NCCc3ccccc3)c(=O)c3ccccc32)cc1` it is 18.6 µM; for `c1ccc2c(c1)CCc1c-2nc2ccccc2c1N1CCOCC1` it is > 50 µM (inactive).

With `O=c1c2c(ccn1Cc1cc(F)ccc1F)ccn2Cc1cccnc1`, the IC50 was > 50 µM (inactive).

With `Cc1ccccc1NC(=O)c1cc(S(=O)(=O)N2CCCCCC2)ccc1Cl`, the half-maximal inhibitory concentration (IC50) was 29.7 µM. With `CC(C)(C)c1ccc(C(=O)Nc2ccc(Cn3cncn3)cc2)cc1`, the IC50 was > 50 µM (inactive). Then `COc1ccc(OCC(=O)Nc2ccc(C)c(OCc3cc(=O)n4ccccc4n3)c2)cc1`, with > 50 µM (inactive). Take `Fc1cccc(Cn2cc(-c3noc(-c4ccncc4)n3)nn2)c1`: the IC50 is > 50 µM (inactive). Take `Cc1cccc(-c2nc3n(CC(=O)Nc4ccc(Cl)cc4)c(C)cc(=O)n3n2)c1`: the IC50 was 2 µM. For the compound `COc1ccc(S(=O)(=O)N2CCN3Cc4ccccc4N(C)CC3C2)cc1` (stereo not drawn), the IC50 is > 50 µM (inactive).

`O=C(NC(Cc1ccccc1)c1nc2ccccc2[nH]1)c1ccccn1` (stereo not drawn): the IC50 is > 50 µM (inactive). Regarding `CCOC(=O)c1cc2c(ccn2C)n1CC(=O)N1CCC(C)CC1`, the IC50 was > 50 µM (inactive). The figure for `COc1ccc(-c2cc(N3CCC(NC(=O)c4ccccc4)C3)n[nH]2)cc1` (stereo not drawn) is 18.4 µM; for `Cc1cccc(C(=O)N2CCc3cc(-c4nc(NC(=O)CNc5ccccc5)sc4C)ccc32)c1` it is > 50 µM (inactive); for `O=C(NCc1nc(-c2ccc3c(c2)[nH]c(=O)n3C2CCCC2)no1)c1ccccc1` it is > 50 µM (inactive). Consider `O=C1/C(=C/c2cn(-c3ccccc3)nc2-c2ccc3c(c2)OCCO3)Cc2ccccc21`, for which the IC50 is > 50 µM (inactive). With `Cc1nc(-c2noc(-c3ccncc3)n2)cn1CC(=O)N1CCN(c2ccc(F)cc2)CC1`, the IC50 is > 50 µM (inactive). `CC1Cc2ccccc2N1C(=O)Cn1c(=O)cc(O)c2ccccc21` (stereo not drawn): the IC50 was > 50 µM (inactive).

Take `O=C(CCc1ccc(S(=O)(=O)N2CCOCC2)cc1)Nc1ccc2c(c1)OCCO2`: the IC50 was > 50 µM (inactive). Consider `CC1=C(C)C(c2c(-c3ccc(C)cc3)[nH]c3ccccc23)N(C(C)(C)C)C1=O` (stereo not drawn), for which the IC50 was 8.84 µM.

The values above are taken from PubChem BioAssay AID1645868 (Buhrlage Lab, Dana-Farber Cancer Institute and Novartis …, 2021).
